# Measurements published in US8686016B2, “Schweinfurthins and uses thereof” (The United States of America, as represented by the …, priority 2009, dated 2014).
# “Also recorded” adds a separate entry of the source.
# Assays:
# [1] = tested on: KR158 astrocytoma cells (Nf1−/−; Trp53−/−); assay: XTT cell proliferation assay, KR158; format: cell-based, mouse
# Method: (§1) XTT Cell Proliferation Assay: Cells were seeded into 96-well plates at a density of 2,000 cells/well and allowed to reattach overnight. Cells were treated with SA, synthetic analogs, camptothecin (NCI Chemotherapeutics Repository, Md., USA), or DMSO control at the indicated concentrations continuously for 48 hours followed by assay in the 96-well plate for relative viable cell number using the dye […] (XTT) and a Wallac-Victor 2 plate reader (Perkin-Elmer, Waltham, Mass., USA). Absorbance was determined at 450 nm with 650 nm as a reference reading. Primary astrocytes were additionally assayed at a 96 hour time point.
# MPNST K16561 cells = assay: XTT cell proliferation assay, K16561; format: cell-based, mouse
# Method: Establishment of NPcis MPNST cell lines: Mice were euthanized by CO2 asphyxiation and tumors were dissected. The tumor volume was measured. The tumor was then cut in half, and ½ fixed in 4% PFA. The other half was rinsed, then cut into 24 pieces of approximately equal size. Each piece was diced with a razor blade and placed in 1 well of a 24 well plate, along with 625 μL of Triple Express (Gibco, Grand Island, N.Y., USA) and 5 μL of recombinant DNAse (Roche, Indianapolis, Ind., USA). Tumors were triturated, then incubated at 37° C. in a 5% CO2 incubator for 2-5 hours, with an additional trituration halfway through incubation time. At the end of the incubation, tumor pieces were triturated again, and suspended cells were transferred to 1.5 mL eppendorf tubes. […] Both plates were monitored for cell growth, grown up to 10 cm plates, and frozen down in 10% DMSO. […]
# as §1, with “Absorbance was determined at 450 nm with 650 nm as a reference reading. Primary astrocytes were additionally assayed at a 96 hour time point.” left out
compound,measurement,setting,value
"CC(C)=CCC/C(C)=C/Cc1c(O)cc(/C=C/c2cc(O)c3c(c2)C[C@@H]2C(C)(C)[C@H](O)[C@H](O)C[C@@]2(C)O3)cc1O [SA, Schweinfurthin A]",inhibition of proliferation (percent viability versus control),"[1]; 48 hours, XTT",highly active; also recorded: sensitive; also recorded: inhibited both the KR158 and SF-295 cell lines in a dose dependent manner
same,GI50,"[1]; Mus musculus, KR158, Nf1-mutant astrocytoma cells",0.01 µM
same,inhibition of proliferation (percent viability versus control),MPNST K16561 cells,dose dependent inhibition of proliferation; also recorded: sensitive
